In one assay the target is Chaperonin GroEL (Escherichia coli (strain K12), UniProt P0A6F5).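 Also: inhibition of GroEL ATPase activity with ATP as substrate, 60 min incubation, spectrometric read-out, recombinant enzyme produced in Escherichia coli DH5alpha.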
Assay [1] deals with T1, Thiosulfate sulfurtransferase (Homo sapiens, UniProt Q16762).
T1 sequence (Q16762 whole entry): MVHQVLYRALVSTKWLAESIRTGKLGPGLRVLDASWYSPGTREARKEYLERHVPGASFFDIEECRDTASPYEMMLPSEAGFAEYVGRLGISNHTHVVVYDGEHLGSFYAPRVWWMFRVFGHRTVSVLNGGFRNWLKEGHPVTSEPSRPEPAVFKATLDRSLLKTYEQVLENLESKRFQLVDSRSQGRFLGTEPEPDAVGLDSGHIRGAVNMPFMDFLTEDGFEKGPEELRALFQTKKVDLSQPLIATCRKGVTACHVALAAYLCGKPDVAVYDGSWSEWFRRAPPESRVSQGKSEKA
It counts as ADME.
Description: Inhibition of native rhodanese (unknown origin) assessed as reduction in rhodanese enzyme activity after 45 mins by Fe(SCN)3 dye based spectrometric analysis

The next assay concerns the target HSP60/HSP10 (Homo sapiens, UniProt P10809).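 Also: His-tagged human HSP60 with HSP10 refolding denatured MDH, read as MDH activity on mesoxalate by malachite green spectrometry, inhibition of refolding.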
In assay [2] the target is T2, E. coli GroEL/ES (Escherichia coli, UniProt P0A6F5).
T2 sequence (P0A6F5 whole entry, looked up): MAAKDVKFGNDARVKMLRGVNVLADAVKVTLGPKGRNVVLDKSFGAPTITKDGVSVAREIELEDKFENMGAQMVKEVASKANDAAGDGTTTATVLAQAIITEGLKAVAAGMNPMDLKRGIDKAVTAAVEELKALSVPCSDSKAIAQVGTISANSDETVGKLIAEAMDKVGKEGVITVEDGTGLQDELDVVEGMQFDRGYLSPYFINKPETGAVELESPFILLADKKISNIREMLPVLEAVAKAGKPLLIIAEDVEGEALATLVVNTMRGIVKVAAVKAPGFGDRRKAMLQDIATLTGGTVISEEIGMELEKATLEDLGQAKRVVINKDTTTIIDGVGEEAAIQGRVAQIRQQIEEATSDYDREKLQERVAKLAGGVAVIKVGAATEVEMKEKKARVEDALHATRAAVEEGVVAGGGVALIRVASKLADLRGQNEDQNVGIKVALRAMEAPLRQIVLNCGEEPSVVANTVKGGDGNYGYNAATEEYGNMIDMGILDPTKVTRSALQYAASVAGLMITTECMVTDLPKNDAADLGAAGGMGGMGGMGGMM
Description: Inhibition of Escherichia coli GroEL expressed in Escherichia coli DH5alpha/Escherichia coli GroES expressed in Escherichia coli BL21 (DE3) assessed as reduction in GroEL/GroES-mediated denatured rhodanese refolding by measuring rhodanese enzyme activity after 45 mins by Fe(SCN)3 dye based spectrometric analysis
For assay [3], the target named is T2, E. coli GroEL/ES. The source holds these as a separate data set.
Description: Inhibition of Escherichia coli GroEL expressed in Escherichia coliDH5alpha/Escherichia coli GroES expressed in Escherichia coli BL21 (DE3) assessed as reduction in GroEL/GroES-mediated denatured soluble pig heart MDH refolding by measuring MDH enzyme activity using sodium mesoxalate as substrate after 20 to 40 mins by malachite green dye based spectrometric analysis

Experimental findings from ChEMBL document CHEMBL4392822, “HSP60/10 chaperonin systems are inhibited by a variety of approved drugs, natural products, and known bioactive molecules” (Bioorg Med Chem Lett, 2019) are described below.

A word on the IC50: it is the concentration at which inhibition is half-maximal.

Sequence of HSP60/HSP10 (P10809 whole entry): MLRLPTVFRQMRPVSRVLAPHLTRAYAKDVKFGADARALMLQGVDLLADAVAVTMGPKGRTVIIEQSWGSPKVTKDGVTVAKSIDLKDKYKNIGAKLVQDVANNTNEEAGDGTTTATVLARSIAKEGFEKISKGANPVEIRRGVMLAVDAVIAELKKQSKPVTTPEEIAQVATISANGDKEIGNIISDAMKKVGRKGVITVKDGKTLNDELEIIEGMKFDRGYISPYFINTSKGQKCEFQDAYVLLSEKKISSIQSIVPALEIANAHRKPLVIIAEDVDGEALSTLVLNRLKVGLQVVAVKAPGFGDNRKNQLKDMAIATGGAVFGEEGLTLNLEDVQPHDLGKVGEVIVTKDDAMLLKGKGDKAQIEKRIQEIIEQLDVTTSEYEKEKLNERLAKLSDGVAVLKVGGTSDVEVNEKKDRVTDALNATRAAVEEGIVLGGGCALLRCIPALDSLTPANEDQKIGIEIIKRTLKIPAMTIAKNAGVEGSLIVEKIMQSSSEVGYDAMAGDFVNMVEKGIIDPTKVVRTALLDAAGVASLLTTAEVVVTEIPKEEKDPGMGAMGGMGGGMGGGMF
Sequence of HSP60/HSP10 (P61604 whole entry, further chain): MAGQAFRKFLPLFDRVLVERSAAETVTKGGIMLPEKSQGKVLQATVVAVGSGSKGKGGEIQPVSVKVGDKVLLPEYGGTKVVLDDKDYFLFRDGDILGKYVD
Sequence of Chaperonin GroEL (P0A6F5 whole entry): as the sequence (P0A6F5 whole entry, looked up) above
Description for Chaperonin GroEL: Inhibition of ATPase activity of Escherichia coli GroEL expressed in Escherichia coliDH5alpha incubated for 60 mins using ATP by spectrometric analysis
Description for HSP60/HSP10: Inhibition of human N-terminal octa-His-tagged HSP60 expressed in Escherichia coli Rosetta(DE3) pLysS/human HSP10 expressed in Escherichia coli Rosetta(DE3) assessed as reduction in HSP60/HSP10-mediated denatured MDH refolding by measuring MDH enzyme activity using sodium mesoxalate as substrate after 40 to 60 mins by malachite green dye based spectrometric analysis

As for `Cc1ccc(C(=O)Nc2ccc(S(=O)(=O)O)c3cc(S(=O)(=O)O)cc(S(=O)(=O)O)c23)cc1NC(=O)c1cccc(NC(=O)Nc2cccc(C(=O)Nc3cc(C(=O)Nc4ccc(S(=O)(=O)O)c5cc(S(=O)(=O)O)cc(S(=O)(=O)O)c45)ccc3C)c2)c1` [SURAMIN], the IC50 is > 250 µM against Chaperonin GroEL, > 100 µM in assay [1] and 7.2 µM at HSP60/HSP10.

Regarding `CC[C@H]1OC(=O)[C@H](C)[C@@H](O[C@H]2C[C@@](C)(OC)[C@@H](O)[C@H](C)O2)[C@H](C)[C@@H](O[C@@H]2O[C@H](C)C[C@H](N(C)C)[C@H]2O)[C@](C)(O)C[C@@H](C)C(=O)[C@H](C)[C@@H](O)[C@]1(C)O` [ERYTHROMYCIN], the IC50 on Chaperonin GroEL is > 250 µM; in assay [1] it was > 100 µM; against HSP60/HSP10, > 100 µM; against E. coli GroEL/ES [2], 178 µM; against E. coli GroEL/ES [3] it was > 100 µM.

Consider `O=C(O)C1=CC(=C(c2ccc(O)c(C(=O)O)c2)c2ccc(O)c(C(=O)O)c2)C=CC1=O` [AURINTRICARBOXYLIC ACID], for which the half-maximal inhibitory concentration (IC50) is > 250 µM on Chaperonin GroEL; > 100 µM in assay [1]; 3.2 µM on HSP60/HSP10; 0.57 µM against E. coli GroEL/ES [2]; 0.9 µM at E. coli GroEL/ES [3].

In the case of `COc1ccc(C(=O)/C=C/c2ccccc2)cc1` [4'-METHOXYCHALCONE], the IC50 against Chaperonin GroEL was > 250 µM; in assay [1], > 100 µM; on HSP60/HSP10 it was 16 µM; at E. coli GroEL/ES [2] it was 30 µM; on E. coli GroEL/ES [3] it was 13 µM.

Turning to `O=C(OC[C@H]1O[C@@H](OC(=O)c2cc(O)c(O)c(OC(=O)c3cc(O)c(O)c(O)c3)c2)[C@H](OC(=O)c2cc(O)c(O)c(OC(=O)c3cc(O)c(O)c(O)c3)c2)[C@@H](OC(=O)c2cc(O)c(O)c(OC(=O)c3cc(O)c(O)c(O)c3)c2)[C@@H]1OC(=O)c1cc(O)c(O)c(OC(=O)c2cc(O)c(O)c(O)c2)c1)c1cc(O)c(O)c(OC(=O)c2cc(O)c(O)c(O)c2)c1` [TANNIC ACID], the IC50 on Chaperonin GroEL worked out at 137 µM; in assay [1], 39 µM; at HSP60/HSP10 it was 3.8 µM; against E. coli GroEL/ES [2], 1 µM; on E. coli GroEL/ES [3], 0.87 µM.

Turning to `O=c1c(O)c(-c2ccc(O)cc2O)oc2cc(O)cc(O)c12` [MORIN], the IC50 is > 250 µM against Chaperonin GroEL; 57 µM in assay [1]; 11 µM on HSP60/HSP10; 5.2 µM at E. coli GroEL/ES [2]; 8.5 µM on E. coli GroEL/ES [3].

As to `O=C1c2ccccc2C(=O)c2c(O)c(O)cc(O)c21` [PURPURIN], the IC50 is > 250 µM against Chaperonin GroEL; 2.3 µM in assay [1]; 23 µM on HSP60/HSP10; 4 µM against E. coli GroEL/ES [2]; 15 µM against E. coli GroEL/ES [3].

`CCCCN1CCC(COC(=O)c2cc(Cl)c(N)c3c2OCCO3)CC1`: the IC50 in assay [1] was > 100 µM; against HSP60/HSP10 it was > 100 µM; at E. coli GroEL/ES [2] it was > 250 µM; against E. coli GroEL/ES [3], > 100 µM.

For the compound `C[C@H](CCC(=O)O)[C@H]1CC[C@H]2[C@@H]3CC[C@@H]4C[C@H](O)CC[C@]4(C)[C@H]3CC[C@]12C` [LITHOCHOLIC ACID], the concentration for half-maximal inhibition (IC50) at Chaperonin GroEL was > 250 µM; in assay [1] it was > 100 µM; against HSP60/HSP10, 10 µM; on E. coli GroEL/ES [2], 59 µM.

As for `Oc1c(Cl)cc(Cl)cc1Sc1cc(Cl)cc(Cl)c1O` [BITHIONOL], the IC50 is > 250 µM on Chaperonin GroEL; > 100 µM in assay [1]; 2.8 µM against HSP60/HSP10; 13 µM at E. coli GroEL/ES [2]; 4.3 µM against E. coli GroEL/ES [3].

Regarding `CN(C)c1ccc2nc3ccc(=[N+](C)C)cc-3sc2c1` [METHYLENE BLUE], the IC50 in assay [1] was 6.1 µM; at HSP60/HSP10, > 100 µM.

Consider `CCCCCCCCCc1ccc(O)cc1` [4-NONYLPHENOL], for which the IC50 is > 250 µM at Chaperonin GroEL; 72 µM in assay [1]; 9.5 µM at HSP60/HSP10; 29 µM at E. coli GroEL/ES [2]; 12 µM on E. coli GroEL/ES [3].

For the compound `Oc1c(Cl)cc(Cl)c(Cl)c1Cc1c(O)c(Cl)cc(Cl)c1Cl` [HEXACHLOROPHENE], the IC50 against Chaperonin GroEL came out at 153 µM; in assay [1] it was 51 µM; at HSP60/HSP10, 1.3 µM; on E. coli GroEL/ES [2], 4.7 µM; against E. coli GroEL/ES [3], 1.4 µM.

Take `O=C(/C=C/c1ccc(O)cc1)c1ccccc1` [4-HYDROXYCHALCONE]: the IC50 against Chaperonin GroEL was > 250 µM; in assay [1], > 100 µM; against HSP60/HSP10 it was 22 µM; at E. coli GroEL/ES [2], 40 µM; at E. coli GroEL/ES [3], 21 µM.

As to `C=C1CC[C@H](O)C/C1=C/C=C1\CCC[C@]2(C)[C@@H]([C@H](C)/C=C/[C@H](C)C(C)C)CC[C@@H]12` [ERGOCALCIFEROL], the IC50 at Chaperonin GroEL is > 250 µM; at HSP60/HSP10, 45 µM; at E. coli GroEL/ES [2], 41 µM; at E. coli GroEL/ES [3], 28 µM.

Consider `C=C1CC[C@H](O)C/C1=C/C=C1\CCC[C@]2(C)[C@@H]([C@H](C)CCCC(C)C)CC[C@@H]12` [CHOLECALCIFEROL], for which the IC50 at Chaperonin GroEL was > 250 µM; in assay [1], > 100 µM; against HSP60/HSP10, 11 µM; against E. coli GroEL/ES [2] it was 31 µM; at E. coli GroEL/ES [3] it was 22 µM.

`CC1=CC(=O)c2c(O)cccc2C1=O` [PLUMBAGIN]: the IC50 against Chaperonin GroEL is > 250 µM; in assay [1], 0.06 µM; against HSP60/HSP10 it was 6.3 µM; on E. coli GroEL/ES [2] it was 0.29 µM; against E. coli GroEL/ES [3], 3.8 µM.

Take `CCc1oc2ccccc2c1C(=O)c1cc(Br)c(O)c(Br)c1` [BENZBROMARONE]: the IC50 against Chaperonin GroEL was > 250 µM; in assay [1] it was > 100 µM; on HSP60/HSP10 it was 9.1 µM; at E. coli GroEL/ES [2], 49 µM; against E. coli GroEL/ES [3], 18 µM.

Turning to `COc1ccc(-c2ccc3cc(C(=O)O)ccc3c2)cc1C12CC3CC(CC(C3)C1)C2`, the IC50 is > 250 µM against Chaperonin GroEL; > 100 µM in assay [1]; 2.3 µM against HSP60/HSP10; 5.1 µM against E. coli GroEL/ES [2]; 2.1 µM against E. coli GroEL/ES [3].

On to `CC1=C(/C=C/C(C)=C/C=C/C(C)=C/C(=O)O)C(C)(C)CCC1` [TRETINOIN], for which the concentration for half-maximal inhibition (IC50) was > 250 µM at Chaperonin GroEL, 5.3 µM at HSP60/HSP10, 21 µM on E. coli GroEL/ES [2] and 6.7 µM against E. coli GroEL/ES [3].

On to `CC(=O)O[C@H]1C(=O)[C@@]2(C)[C@H]([C@H](OC(=O)c3ccccc3)[C@]3(O)C[C@H](OC(=O)[C@H](O)[C@@H](NC(=O)c4ccccc4)c4ccccc4)C(C)=C1C3(C)C)[C@]1(OC(C)=O)CO[C@@H]1C[C@@H]2O` [PACLITAXEL], for which the IC50 on Chaperonin GroEL was > 250 µM; against HSP60/HSP10 it was > 100 µM; on E. coli GroEL/ES [2], 114 µM; on E. coli GroEL/ES [3], 56 µM.

Turning to `Cc1cc2nc3c(=O)[nH]c(=O)nc-3n(C[C@H](O)[C@H](O)[C@H](O)CO)c2cc1C` [RIBOFLAVIN], the IC50 on Chaperonin GroEL was > 250 µM; against HSP60/HSP10, > 100 µM; against E. coli GroEL/ES [2] it was 18 µM; at E. coli GroEL/ES [3], > 100 µM.

As to `Cc1cc2nc3c(=O)[nH]c(=O)nc-3n(C[C@H](O)[C@H](O)[C@H](O)COP(=O)(O)O)c2cc1C` [RIBOFLAVIN 5'-PHOSPHATE SODIUM], the IC50 at Chaperonin GroEL was > 250 µM; in assay [1], 0.38 µM; on E. coli GroEL/ES [2], 0.77 µM; against E. coli GroEL/ES [3], 85 µM.

`Nc1ccc(O)c(C(=O)O)c1` [MESALAMINE] had an IC50 in assay [1] of 0.28 µM. In other words, the sub-micromolar range.

`COc1cc(-c2ccc(/N=N/c3ccc4c(S(=O)(=O)O)cc(S(=O)(=O)O)c(N)c4c3O)c(OC)c2)ccc1/N=N/c1ccc2c(S(=O)(=O)O)cc(S(=O)(=O)O)c(N)c2c1O`: the 50% inhibitory concentration (IC50) in assay [1] was determined as 8.5 µM; against E. coli GroEL/ES [2], 2 µM; against E. coli GroEL/ES [3], 3.9 µM.

On to `O=C1C=C2CC3(O)COc4c(ccc(O)c4O)C3=C2C=C1O` (centres undefined) [HEMATEIN], for which the IC50 was > 250 µM against Chaperonin GroEL, 12 µM in assay [1], 3.6 µM against HSP60/HSP10 and 1.8 µM against E. coli GroEL/ES [3].

Turning to `COc1cc(NC(C)CCCN)c2ncccc2c1` (centres undefined) [PRIMAQUINE], the IC50 is 2.9 µM in assay [1] and > 100 µM against HSP60/HSP10.

With IVERMECTIN, the IC50 was > 250 µM on Chaperonin GroEL and > 100 µM in assay [1].

With `CCOc1nc2cccc(C(=O)O)c2n1Cc1ccc(-c2ccccc2-c2nnn[nH]2)cc1`, the IC50 in assay [1] is > 100 µM; on HSP60/HSP10 it was > 100 µM; against E. coli GroEL/ES [2], > 250 µM; against E. coli GroEL/ES [3] it was > 100 µM.

With `Cc1cc(C(C#N)c2ccc(Cl)cc2)c(Cl)cc1NC(=O)c1cc(I)cc(I)c1O` (centres undefined) [CLOSANTEL], the IC50 at Chaperonin GroEL is > 250 µM; in assay [1] it was > 100 µM; on HSP60/HSP10 it was 2.8 µM; against E. coli GroEL/ES [2], 2 µM.

With `C=C(NC(=O)C(=C)NC(=O)c1csc(C2=N[C@@H]3c4csc(n4)[C@H]4NC(=O)c5csc(n5)[C@H]([C@](C)(O)[C@@H](C)O)NC(=O)[C@H]5CSC(=N5)/C(=C/C)NC(=O)[C@H]([C@@H](C)O)NC(=O)c5csc(n5)[C@]3(CC2)NC(=O)[C@H](C)NC(=O)C(=C)NC(=O)[C@H](C)NC(=O)[C@H]([C@@H](C)CC)N[C@@H]2C=Cc3c([C@H](C)O)cc(nc3[C@H]2O)C(=O)O[C@@H]4C)n1)C(N)=O` [THIOSTREPTON], the IC50 at Chaperonin GroEL is > 250 µM; in assay [1], > 100 µM; on HSP60/HSP10, 13 µM; on E. coli GroEL/ES [3], 6.8 µM.

Turning to `CC(C)(C)NCC(O)c1ccc(O)c(CO)c1` (centres undefined) [ALBUTEROL], the IC50 in assay [1] was > 100 µM; against HSP60/HSP10 it was > 100 µM; at E. coli GroEL/ES [2], > 250 µM; at E. coli GroEL/ES [3] it was > 100 µM.

As for `CC1=NCCc2c1[nH]c1cc(O)ccc21` [HARMALOL], the concentration for half-maximal inhibition (IC50) is > 250 µM against Chaperonin GroEL, > 100 µM at HSP60/HSP10 and > 100 µM at E. coli GroEL/ES [3].
